According to US11291693B2, “Bacteria engineered to treat metabolic diseases” (Synlogic Operating Company, Inc., priority 2015, dated 2022):

Tests used:
[1] = tested on: dipeptidyl peptidase IV (DPP-IV); details: cited from earlier work; for resistance to DPPIV mediated degradation / cleavage: short description of a known GLP-1R agonist in Table 10, in words
[2] = tested on: rat intestinal epithelial cells; details: cited from earlier work
[3] = tested on: Ptet-GFP reporter construct; experiment: ATC-inducible GFP reporter assay, fluorescence plate reader; format: cell-based, E. coli Nissle; details: two-fold decreased inducer across a range of concentrations; relative florescence units; FIG. 28
[4] = tested on: PnsrR-GFP reporter construct; experiment: Nitric oxide-inducible GFP reporter assay, fluorescence plate reader; format: cell-based, E. coli Nissle; details: NO donor DETA-NO, two-fold decreased across a range of concentrations; relative florescence units; FIG. 28

Taspoglutide
resistance to DPPIV mediated degradation / cleavage [1]: avoid degradation by DPPIV,

GLP-1: glucagon-like peptide 1, produced by intestinal cells
stability ([1]; rapid degradation catalyzed by DPP-IV): 3 to 5 min

Dulaglutide
resistance to DPPIV mediated degradation / cleavage [1]: protection from DPPIV

GLP-1(1-37): full-length form of GLP-1, SEQ ID NO: 73 (HDEFERHAEGTFTSDVSSYLEGQAAKEFIAWLVKGRG)
effect on intestinal epithelial cells [2]: stimulate rat intestinal epithelial cells to become glucose-responsive insulin-secreting cells

GLP-1(7-37): circulating active form of GLP-1, SEQ ID NO: 75
biological half-life in blood ([1]; blood): a few minutes

anhydrous tetracycline [ATC]
induction of GFP expression in Ptet-GFP reporter construct [3]: able to induce the expression of GFP

NCCN(CCN)/[N+]([O-])=N/O [NO, diethylenetriamine-nitric oxide adduct]
induction of GFP expression in PnsrR-GFP reporter construct [4]: able to induce the expression of GFP
